# Test results taken from US12558342B2, “2-[2-({12,12-dimethyl-4-oxo-6-phenyl-3,11-dioxatricyclo[8.4.0.0,2,7]tetradeca-1,5,7,9-tetraen-8-yl}oxy)acetamido]benzamide and derivatives as inhibitor of clock:bmal1 interaction for the treatment of circadian rhythm diseases and disorders” (KOC UNIVERSITESI, priority 2019, dated 2026).
# Molecular target: T1, CLOCK and BMAL1 interaction (Homo sapiens, UniProt O15516)
# T1 construct: expressed in transfected cells; host or cells: HEK 293T
# T1 sequence (O15516 1-846): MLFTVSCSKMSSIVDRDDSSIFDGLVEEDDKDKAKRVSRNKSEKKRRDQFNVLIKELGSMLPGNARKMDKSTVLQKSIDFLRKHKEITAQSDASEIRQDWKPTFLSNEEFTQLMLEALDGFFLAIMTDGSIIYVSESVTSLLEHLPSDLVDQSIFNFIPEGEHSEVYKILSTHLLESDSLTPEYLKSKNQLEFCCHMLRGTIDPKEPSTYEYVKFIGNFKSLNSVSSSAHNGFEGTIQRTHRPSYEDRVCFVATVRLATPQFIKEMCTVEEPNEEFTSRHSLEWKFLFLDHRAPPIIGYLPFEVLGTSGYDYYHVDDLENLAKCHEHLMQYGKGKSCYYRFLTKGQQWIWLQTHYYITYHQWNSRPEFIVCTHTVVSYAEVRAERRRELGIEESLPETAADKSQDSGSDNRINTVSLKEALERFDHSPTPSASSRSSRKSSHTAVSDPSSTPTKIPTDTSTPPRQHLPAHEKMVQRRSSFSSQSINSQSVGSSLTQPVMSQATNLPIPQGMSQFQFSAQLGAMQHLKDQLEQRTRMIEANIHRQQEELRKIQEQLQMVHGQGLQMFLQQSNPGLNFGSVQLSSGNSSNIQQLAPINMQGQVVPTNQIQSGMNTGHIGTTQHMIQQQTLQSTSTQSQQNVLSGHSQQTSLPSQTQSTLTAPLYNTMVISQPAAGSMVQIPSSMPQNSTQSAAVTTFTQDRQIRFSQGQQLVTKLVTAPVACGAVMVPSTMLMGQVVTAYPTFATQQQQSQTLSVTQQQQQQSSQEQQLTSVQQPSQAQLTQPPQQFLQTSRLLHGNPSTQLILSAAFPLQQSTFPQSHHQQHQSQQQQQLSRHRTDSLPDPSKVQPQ
# Test: Co-immunoprecipitation of FLAG-CLOCK and BMAL1
# Type: biochemical
# Details: 10 μM and 40 μM
# Description: HEK 293T cells co-expressing wild type or F80A-K220A mutant FLAG-tagged Clock together with tag-free Bmal1 were lysed with ice-cold lysis buffer (50 mM Tris-HCl PH 7.7, 150 mM NaCl, 0.1% Triton X-100, 1 mM PMSF and protease inhibitor cocktail) and centrifuged at 15000×g at 4° C. for 20 minutes. DMSO and different concentrations of CLK8 were added to the whole cell lysate. The mixtures were incubated with anti-FLAG M2 affinity gel (Sigma-Aldrich) at 4° C. overnight with continuous mixing. After three wash steps, bound proteins were eluted with Laemmli buffer heated at 95° C. for 7 minutes. CLOCK and BMAL1 were detected by monoclonal anti-FLAG M2 antibody (Sigma-Aldrich) and anti-BMAL1 (Santa Cruz Biotechnology) respectively. The amount of co-precipitated BMAL1 was normalized with the amount of precipitated CLOCK.
# HEK 293T cells co-expressing wild type or F80A-K220A mutant FLAG-tagged Clock together with tag-free Bmal1 were lysed with ice-cold lysis buffer (50 mM Tris-HCl pH 7.7, 150 mM NaCl, 0.1% Triton X-100, 1 mM PMSF and protease inhibitor cocktail) and centrifuged at 15000×g at 4° C. for 20 minutes. DMSO and different concentrations of CLK8 were added to the whole cell lysate. […] CLOCK and BMAL1 were detected by monoclonal anti-FLAG M2 antibody (Sigma-Aldrich) and anti-BMAL1 (Santa Cruz Biotechnology) respectively. […]
compound,measurement,value
"CC1(C)CCc2c(cc(OCC(=O)Nc3ccccc3C(N)=O)c3c(-c4ccccc4)cc(=O)oc23)O1 [CLK8, 2-[2-({12,12-dimethyl-4-oxo-6-phenyl-3,11-dioxatricyclo [8.4.0.0,2,7]tetradeca-1,5,7,9-tetraen-8-yl}oxy)acetamido] benzamide]",amount of co-precipitated BMAL1,reduced as the concentration of CLK8 increased
